Results from patent US8778985B2, “Inhibiting amyloid-beta peptide/rage interaction at the blood-brain barrier” (The University of Rochester, priority 2006, dated 2014).

Target: T1, RAGE (Homo sapiens, UniProt Q15109)
T1 construct: expressed in transfected cells; host or cells: Chinese hamster ovary (CHO) cells
Assay: 125I-Aβ40 specific binding on RAGE-transfected CHO cells at 4° C., competitive inhibition
Conditions: for inhibitory constant (Ki) of Aβ-RAGE binding: competitive
From the text: Data are mean±s.e.m., n=3 per group.
All three are tertiary amides substituted with a large, hydrophobic hydrocarbon moiety and a monosubstituted aromatic moiety. Linkage to the monosubstituted aromatic is either direct (FPS2) or via an alkyl (FPS1) or heteroaromatic (FPS3) spacer. Two of the compounds also feature a highly electron-poor substituted benzene ring (3-nitro, 4-chloro for FPS1; 3,5-dinitro for FPS2).

T1 sequence (Q15109 23-404): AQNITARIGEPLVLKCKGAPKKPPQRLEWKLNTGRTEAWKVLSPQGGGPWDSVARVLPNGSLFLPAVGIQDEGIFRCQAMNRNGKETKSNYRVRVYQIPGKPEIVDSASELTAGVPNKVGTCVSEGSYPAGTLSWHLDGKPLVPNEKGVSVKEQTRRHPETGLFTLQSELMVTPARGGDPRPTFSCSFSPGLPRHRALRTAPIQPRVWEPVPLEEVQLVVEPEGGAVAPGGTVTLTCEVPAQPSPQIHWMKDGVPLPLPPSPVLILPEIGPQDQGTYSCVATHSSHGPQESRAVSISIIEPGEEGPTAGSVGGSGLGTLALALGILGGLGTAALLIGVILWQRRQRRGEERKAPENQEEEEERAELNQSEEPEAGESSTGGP

| SMILES | Ki/Kd ratio (Ki compound's inhibitory constant, Kd Aβ-RAGE binding constant) | inhibitory constant (Ki) of Aβ-RAGE binding |
| --- | --- | --- |
| CCOCCCN(CC(=O)N(Cc1cccn1Cc1ccc(F)cc1)C1CCCCC1)C(=O)C(C)(C)CCl [FPS1, 3-chloro-N-[2-[cyclohexyl[[1-[(4-fluorophenyl)methyl]-1H-pyrrol-2-yl]methyl]amino]-2-oxoethyl]-N-(3-ethoxypropyl)-2,2-dimethyl-(9Cl)-propanamide] | 2.6 | low |
| CCCCCC(=Cc1ccccc1)CN(CCc1c[nH]c2ccccc12)C(=O)c1ccc(Cl)c([N+](=O)[O-])c1 [FPS3, 4-chloro-N-[2-(1H-indo-3-yl)-ethyl]-3-nitro-N-(2-pentyl-3-phenyl-allyl)-benzamide] | 1.6 | low |
